According to patent US8252832B2, “Kinesin inhibitors as cancer therapeutics” (Novartis AG, priority 2007, dated 2012):
Like-named read-outs stand apart in the source and are kept apart here.

Key:
Assay in all cases: CellTiter-Glo, NCI60 panel
Format in all cases: cell-based
UACC-62 = conditions: Melanoma; for GI50: Homo sapiens
Excerpt: (§1) Identification of tumor types that are the most sensitive to the KSP inhibitors of the present invention can be accomplished using an unbiased approach that uses several cell-based assays. The assays chosen were as follows: • CellTiter-Glo®. This is an assay designed to measure ATP concentration in a cell culture, and can be correlated to cell number. Briefly CellTiter-Glo® (Promega Corporation) is a homogeneous method using the single CellTiter-Glo® reagent to detect ATP wherein ATP in the assay drives the activity of a thermostable luciferase to create a luminescent signal which can then be measured and correlated with the number of viable cells. Briefly, for adherent cells, 1,000 to 5,000 cells/well were plated in 96-well plates (100 μl/well) and let to adhere for 24 hours before being treated with drug. For non-adherent cells, 1,000 to 10,000 cells/well were plated in 96-well plates (100 μl/well) and immediately treated with drug. Drug dilutions were prepared in DMSO at 1000 times the final concentration. These dilutions were then diluted 1/100 in growth media before being added to the cells (11 μl/well) to achieve the desired final concentration. After 48 h in a 37° C. tissue culture incubator, the plates were processed for the CellTiter-Glo®assay according to the manufacturer's instructions. Protocol for a 72 hour cell proliferation assay: The 72 hour assay was performed the same way as the 48 hour assay except for the following modifications: For adherent cells, 500 to 5,000 cells/well were plated in 96-well plates (90 μl/well cell growth media) and left to adhere for 24 hours before being treated with drug. For non-adherent cells, 1,000 to 10,000 cells/well were plated in 96-well plates (90 μl/well cell growth media) and immediately treated with drug. Data values presented represent the concentration of test compound required for a 50% reduction in growth. • LDH release. The Cytotoxicity Detection KitPLUS (LDH) assay (Roche Diagnostics, Manheim, Germany) measures the amount of LDH released in the media by dying cells; LDH catalyzes the conversion of lactate into pyruvate. The enzymatic reaction is coupled to a chemical reaction that uses a tetrazolium salt to form a formazan that is red and can be detected by its absorbance at 490 nm. This assay measures the amount of cell death after drug treatment. Cells were plated at 10,000 cells/well in 96-well plates (100 μl/well). Adherent cells were let to adhere for 24 hours before being treated with drug, whereas non-adherent cells were immediately treated with drug. Drug dilutions were prepared in DMSO at 1000 times the final concentration. These dilutions were then diluted 1/100 in growth media before being added to the cells (11 μl/well) to achieve the desired final concentration. After 48 h in a 37° C. tissue culture incubator, the plates were processed for the Cytotoxicity Detection KitPLUS (LDH) assay according to the manufacturer's instructions. The media only values were subtracted from all the data points before analysis. Data values presented correspond to the compound concentration wherein LDH output is at half maximal level. • Caspase-Glo® 3/7. The Caspase-Glo® 3/7 Assay (Promega Corporation) is a homogeneous luminescent assay that measures caspase-3/7 activities. The assay provides a proluminescent caspase-3/7 DEVD-aminoluciferin substrate and a thermostable luciferase in a reagent optimized for caspase-3/7 activity, luciferase activity and cell lysis. Adding the single Caspase-Glo® 3/7 Reagent results in cell lysis, followed by caspase cleavage of the substrate. This liberates free aminoluciferin, which is consumed by the luciferase, generating a luminescent signal. The signal is proportional to caspase-3/7 activity. Data values presented correspond to the compound concentration wherein caspase 3/7 activity is at half maximal level. […]

MOLT-4 = conditions: Leukemia; for GI50: Homo sapiens
Excerpt: as §1

LOX IMVI = conditions: Melanoma; for GI50: Homo sapiens
Excerpt: as §1

NCI-H460 = conditions: NSCL; for GI50: Homo sapiens
Excerpt: as §1

BT-549 = conditions: Breast; for GI50: Homo sapiens
Excerpt: as §1

A549 = conditions: NSCL; for GI50: Homo sapiens
Excerpt: as §1

OVCAR-3 = conditions: Ovarian; for GI50: Homo sapiens
Excerpt: as §1

SK-MEL-5 = conditions: Melanoma; for GI50: Homo sapiens
Excerpt: as §1

HCC-2998 = conditions: Colon; for GI50: Homo sapiens
Excerpt: as §1

CCRF-CEM = conditions: Leukemia; for GI50: Homo sapiens
Excerpt: as §1

786-0 = conditions: Renal; for GI50: Homo sapiens
Excerpt: as §1

BT-474 = conditions: Breast; for GI50: Homo sapiens
Excerpt: as §1

NCI-H23 = conditions: NSCL; for GI50: Homo sapiens
Excerpt: as §1

MDA-MB-435 = conditions: Melanoma; for GI50: Homo sapiens
Excerpt: as §1

OVCAR-8 = conditions: Ovarian; for GI50: Homo sapiens
Excerpt: as §1

KM12 = conditions: Colon; for GI50: Homo sapiens
Excerpt: as §1

[1] = GI50 in nM, read-out: Log(GI50) (converted)

In the case of `CC(C)(C)[C@H](c1nc(-c2cc(F)ccc2F)cn1Cc1ccccc1)N(CC[C@H](N)CF)C(=O)CO` [Compound IIa], the GI50 (UACC-62; [1]) is reported as 10 nM, the GI50 (UACC-62; read-out: GI50) is reported as 10 nM and the “Differential vs mean Log(GI50)” value (UACC-62) is reported as −0.669. The GI50 (MOLT-4; [1]) was 0.331 nM, the GI50 (MOLT-4; read-out: GI50) was 0.331 nM and the “Differential vs mean Log(GI50)” value (MOLT-4) was 0.811. For the same compound, the GI50 (LOX IMVI; [1]) was 10 nM, the GI50 (LOX IMVI; read-out: GI50) was 10 nM and the “Differential vs mean Log(GI50)” value (LOX IMVI) was −0.669. The GI50 (NCI-H460; [1]) was 0.378 nM, the GI50 (NCI-H460; read-out: GI50) was 0.378 nM and the “Differential vs mean Log(GI50)” value (NCI-H460) was 0.754. For the same compound, the “Differential vs mean Log(GI50)” value (BT-549) was 0.423, the GI50 (BT-549; [1]) was 0.809 nM and the GI50 (BT-549; read-out: GI50) was 0.809 nM. For the same compound, the GI50 (A549; [1]) was 10 nM, the GI50 (A549; read-out: GI50) was 10 nM and the “Differential vs mean Log(GI50)” value (A549) was −0.669. The GI50 (OVCAR-3; [1]) was 10 nM, the GI50 (OVCAR-3; read-out: GI50) was 10 nM and the “Differential vs mean Log(GI50)” value (OVCAR-3) was −0.669. For the same compound, the GI50 (SK-MEL-5; [1]) was 10 nM, the GI50 (SK-MEL-5; read-out: GI50) was 10 nM and the “Differential vs mean Log(GI50)” value (SK-MEL-5) was −0.669. For the same compound, the “Differential vs mean Log(GI50)” value (HCC-2998) was 0.547, the GI50 (HCC-2998; [1]) was 0.608 nM and the GI50 (HCC-2998; read-out: GI50) was 0.608 nM. The GI50 (CCRF-CEM; [1]) was 0.215 nM, the GI50 (CCRF-CEM; read-out: GI50) was 0.215 nM and the “Differential vs mean Log(GI50)” value (CCRF-CEM) was 0.999. The GI50 (786-0; [1]) was 10 nM, the GI50 (786-0; read-out: GI50) was 10 nM and the “Differential vs mean Log(GI50)” value (786-0) was −0.669. For the same compound, the “Differential vs mean Log(GI50)” value (BT-474) was −0.669, the GI50 (BT-474; [1]) was 10 nM and the GI50 (BT-474; read-out: GI50) was 10 nM. The GI50 (NCI-H23; [1]) was 0.223 nM, the GI50 (NCI-H23; read-out: GI50) was 0.223 nM and the “Differential vs mean Log(GI50)” value (NCI-H23) was 0.983. For the same compound, the GI50 (MDA-MB-435; [1]) was 0.152 nM, the GI50 (MDA-MB-435; read-out: GI50) was 0.152 nM and the “Differential vs mean Log(GI50)” value (MDA-MB-435) was 1.149. For the same compound, the GI50 (OVCAR-8; [1]) was 0.324 nM, the GI50 (OVCAR-8; read-out: GI50) was 0.324 nM and the “Differential vs mean Log(GI50)” value (OVCAR-8) was 0.821. The “Differential vs mean Log(GI50)” value (KM12) was 0.705, the GI50 (KM12; [1]) was 0.423 nM and the GI50 (KM12; read-out: GI50) was 0.423 nM.
